This note sets out measurements from patent publication US8940911B2, “Squarylated lactones inhibitors for bacterial biofilm formation” (Syracuse University, priority 2012, dated 2015).

The assay relates to E. coli RP437. The assay can be described thus: Static biofilm dispersion assay (established biofilm, crystal violet). Format: cell-based, Escherichia coli. To be noted: established 24 h E. coli RP437 biofilm, 200 μM, further 24 h. The source says:
Apart from the design and development of molecules that display bacterial biofilm inhibition, perhaps the greater challenge is to construct small molecules that will effectively disperse established biofilm. Generally, treatment of chronic microbial infections is commonly hindered by the presence of established biofilms that offer increased resistance to the entry of antibiotics and prevent their mode of action. In fact, bacteria in the biofilms are known to be greater than 1000-fold resistant to microbicides. […] E. coli RP437 strain was allowed to form biofilms over 24 h in the absence of any inhibitor. […]
An overnight culture of E. coli RP437 grown in LB media (OD600 of 1.0) containing streptomycin (10 μg/mL) was subsequently sub-cultured to an OD600 of 0.03-0.04 (1:100 dilution with LB media). […] Finally, the biofilm formed was quantified by transferring 100 μL of the ethanol solution into a fresh polystyrene microtiter dish that was subsequently read by an absorbance plate reader (A600). After elimination of background absorbance, the percentage dispersion was calculated by dividing the amount of absorbed crystal violet in wells that contained the synthetic compound by the amount of absorbed crystal violet in wells that contained bacteria only (control). […]

`CC1=C(Br)/C(=C/Br)OC1=O` [BF8 48, reference compound] displayed a biofilm dispersal ability of 39%.
For `C=Cc1c(NC2CCOC2=O)c(=O)c1=O` (centres unmarked) [vinyl-SHL 3], the “biofilm dispersal (in words)” value is reported as “a quarter of biofilm being dispersed”.
